Measured values as given in US20210355121A1, “FUSED TRICYCLIC KRAS INHIBITORS” (Incyte Corporation, priority 2020, published 2021).

Assays:
KRAS G12D = KRAS G12D (Homo sapiens, UniProt P01116, G12D); test: KRAS G12D GDP-GTP exchange assay (bodipy-GDP for GppNHp, with SOS1); type: biochemical; conditions: 2.5 nM bodipy loaded KRAS G12D, 4 hours after GppNHp-SOS1; read-out: G12D_exchange (KRAS_G12D exchange assay IC50)
Method: (§1) The inhibitor potency of the exemplified compounds was determined in a fluorescence based guanine nucleotide exchange assay, which measures the exchange of bodipy-GDP (fluorescently labeled GDP) for GppNHp (Non-hydrolyzable GTP analog) to generate the active state of KRAS in the presence of SOS1 (guanine nucleotide exchange factor). Inhibitors were serially diluted in DMSO and a volume of 0.1 μL was transferred to the wells of a black low volume 384-well plate. 5 μL/well volume of bodipy-loaded KRAS G12C diluted to 5 nM in assay buffer (25 mM Hepes pH 7.5, 50 mM NaCl, 10 mM MgCl2 and 0.01% Brij-35) was added to the plate and pre-incubated with inhibitor for 2 hours at ambient temperature. Appropriate controls (enzyme with no inhibitor or with a G12C inhibitor (AMG-510)) were included on the plate. The exchange was initiated by the addition of a 5 μL/well volume containing 1 mM GppNHp and 300 nM SOS1 in assay buffer. The 10 μL/well reaction concentration of the bodipy-loaded KRAS G12C, GppNHp, and SOS1 were 2.5 nM, 500 uM, and 150 nM, respectively. The reaction plates were incubated at ambient temperature for 2 hours, a time estimated for complete GDP-GTP exchange in the absence of inhibitor. For the KRAS G12D and G12V mutants, similar guanine nucleotide exchange assays were used with 2.5 nM as final concentration for the bodipy loaded KRAS proteins and with 4 hours and 3 hours incubation after adding GppNHp-SOS1 mixture for G12D and G12V respectively. A cyclic peptide described to selectively bind G12D mutant (Sakamoto et al., BBRC 484.3 (2017), 605-611) or internal compounds with confirmed binding were used as positive controls in the assay plates. Fluorescence intensities were measured on a PheraStar plate reader instrument (BMG Labtech) with excitation at 485 nm and emission at 520 nm.
(§2) Either GraphPad prism or XLfit was used to analyze the data. The IC50 values were derived by fitting the data to a four parameter logistic equation producing a sigmoidal dose-response curve with a variable Hill coefficient. Prism equation: Y=Bottom+(Top−Bottom)/(1+10^((Log IC50−X)*Hill slope)); XLfit equation: Y=(A+((B−A)/(1+((X/C)^D)))) where X is the logarithm of inhibitor concentration and Y is the response.

KRAS G12V = KRAS G12V (Homo sapiens, UniProt P01116, G12V); test: KRAS G12V GDP-GTP exchange assay (bodipy-GDP for GppNHp, with SOS1); type: biochemical; conditions: 2.5 nM bodipy loaded KRAS G12V, 3 hours after GppNHp-SOS1; read-out: G12V_exchange (KRAS_G12V exchange assay IC50)
Method: as §1, §2

Sequence of KRAS G12D (P01116 1-188 isoform P01116-2 G12D): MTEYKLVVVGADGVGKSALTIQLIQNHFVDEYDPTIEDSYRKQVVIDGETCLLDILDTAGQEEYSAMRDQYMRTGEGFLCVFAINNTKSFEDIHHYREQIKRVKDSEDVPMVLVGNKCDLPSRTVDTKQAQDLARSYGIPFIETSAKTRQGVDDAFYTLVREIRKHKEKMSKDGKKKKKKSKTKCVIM
Sequence of KRAS G12V (P01116 1-188 isoform P01116-2 G12V): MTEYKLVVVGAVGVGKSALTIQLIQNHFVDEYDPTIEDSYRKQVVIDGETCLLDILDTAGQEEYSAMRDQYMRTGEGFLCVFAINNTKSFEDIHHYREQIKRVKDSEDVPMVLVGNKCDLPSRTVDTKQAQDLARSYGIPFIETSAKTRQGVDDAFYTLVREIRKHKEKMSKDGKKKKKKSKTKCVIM

SMILES	IC50 (KRAS G12D) [µM]	IC50 (KRAS G12V) [µM]
CN1CCC[C@H]1COc1nc2c(F)c(-c3cc(O)cc4ccccc34)c(CCC#N)cc2c2c1cc(-c1cnn(C)c1)n2C1C2CNC1C2 (stereo partly drawn) [Example 32, 3-(1-(2-azabicyclo[2.1.1]hexan-5-y1)-6-fluoro-7-(3-hydroxynaphthalen-1-y1)-2-(1-methyl-1H-pyrazol-4-y1)-4-(((S)-1-methylpyrrolidin-2-yl)methoxy)-1H-pyrrolo[3,2-c]quinolin-8-yl)propanenitrile]	≤ 0.1	≤ 0.1
CCCc1cc2c(OC[C@@H]3CCCN3C)nc3c(F)c(-c4cc(O)cc5ccccc45)c(CCC#N)cc3c2n1C1C2CNC1C2 (stereo partly drawn) [Example 31, 3-(1-(2-azabicyclo[2.1.1]hexan-5-yl)-6-fluoro-7-(3-hydroxynaphthalen-1-yl)-4-(((S)-1-methylpyrrolidin-2-yl)methoxy)-2-propyl-1H-pyrrolo[3,2-c]quinolin-8-yl)propanenitrile]	≤ 0.1	≤ 0.1
CN(C)C(=O)CCc1cc2c(OC[C@@H]3CCCN3C)nc3c(F)c(-c4cc(O)cc5ccccc45)c(CCC#N)cc3c2n1C1C2CNC1C2 (stereo partly drawn) [Example 30, 3-(1-(2-azabicyclo[2.1.1]hexan-5-yl)-8-(2-cyanoethyl)-6-fluoro-7-(3-hydroxynaphthalen-1-yl)-4-(((S)-1-methylpyrrolidin-2-yl)methoxy)-1H-pyrrolo[3,2-c]quinolin-2-yl)-N,N-dimethylpropanamide]	≤ 0.1	≤ 0.1
Cc1ncc(-c2cn(C3C4CNC3C4)c3c2c(OC[C@@H]2CCCN2C)nc2c(F)c(-c4cc(O)cc5ccccc45)c(CCC#N)cc23)s1 (stereo partly drawn) [Example 37, 3-(1-(2-azabicyclo[2.1.1]hexan-5-yl)-6-fluoro-7-(3-hydroxynaphthalen-1-yl)-4-(((S)-1-methylpyrrolidin-2-yl)methoxy)-3-(2-methylthiazol-5-yl)-1H-pyrrolo[3,2-c]quinolin-8-yl)propanenitrile]	≤ 0.1	0.1 to 1
CN1CCC[C@H]1COc1nc2c(F)c(-c3cc(O)cc4ccccc34)c(CCC#N)cc2c2c1c(-c1cccnc1)cn2C1C2CNC1C2 (stereo partly drawn) [Example 35, 3-(1-(2-azabicyclo[2.1.1]hexan-5-yl)-6-fluoro-7-(3-hydroxynaphthalen-1-yl)-4-(((S)-1-methylpyrrolidin-2-yl)methoxy)-3-(pyridin-3-yl)-1H-pyrrolo[3,2-c]quinolin-8-yl)propanenitrile]	≤ 0.1	0.1 to 1
Cc1ncc(-c2cn(C3C4CNC3C4)c3c2c(OC[C@@H]2CCCN2C)nc2c(F)c(-c4cc(O)cc5ccccc45)c(CCC#N)cc23)o1 (stereo partly drawn) [Example 36, 3-(1-(2-azabicyclo[2.1.1]hexan-5-yl)-6-fluoro-7-(3-hydroxynaphthalen-1-yl)-3-(2-methyloxazol-5-yl)-4-(((S)-1-methylpyrrolidin-2-yl)methoxy)-1H-pyrrolo[3,2-c]quinolin-8-yl)propanenitrile]	≤ 0.1	0.1 to 1
CN1CCC[C@H]1COc1nc2c(F)c(-c3cc(O)cc4ccccc34)c(CCC#N)cc2c2c1c(-c1ccccc1)cn2C1C2CNC1C2 (stereo partly drawn) [Example 34, 3-(1-(2-azabicyclo[2.1.1]hexan-5-yl)-6-fluoro-7-(3-hydroxynaphthalen-1-yl)-4-(((S)-1-methylpyrrolidin-2-yl)methoxy)-3-phenyl-1H-pyrrolo[3,2-c]quinolin-8-yl)propanenitrile]	0.1 to 1	1 to 5
CN1CCC[C@H]1COc1nc2c(F)c(-c3cc(O)cc4ccccc34)c(CCC#N)cc2c2c1ccn2C1C2CNC1C2 (stereo partly drawn) [Example 33, 3-(1-(2-azabicyclo[2.1.1]hexan-5-yl)-6-fluoro-7-(3-hydroxynaphthalen-1-yl)-4-(((S)-1-methylpyrrolidin-2-yl)methoxy)-1H-pyrrolo[3,2-c]quinolin-8-yl)propanenitrile]	≤ 0.1	0.1 to 1

Further lines, results first:

IC50 (KRAS G12D) [µM]	IC50 (KRAS G12V) [µM]	SMILES
≤ 0.1	0.1 to 1	CN1CCC[C@H]1COc1nc2c(F)c(-c3cc(O)cc4ccccc34)c(CCC#N)cc2c2c1c(C(=O)NCc1ccccc1)cn2C1C2CNC1C2 (stereo partly drawn) [Example 45, N-Benzyl-1-(2-azabicyclo[2.1.1]hexan-5-yl)-8-(2-cyanoethyl)-6-fluoro-7-(3-hydroxynaphthalen-1-yl)-4-(((S)-1-methylpyrrolidin-2-yl)methoxy)-1H-pyrrolo[3,2-c]quinoline-3-carboxamide]
≤ 0.1	≤ 0.1	CN1CCC[C@H]1COc1nc2c(F)c(-c3cc(O)cc4ccccc34)c(CCC#N)cc2c2c1c(-c1cn[nH]c1)cn2C1C2CNC1C2 (stereo partly drawn) [Example 41, 3-(1-(2-azabicyclo[2.1.1]hexan-5-yl)-6-fluoro-7-(3-hydroxynaphthalen-1-yl)-4-(((S)-1-methylpyrrolidin-2-yl)methoxy)-3-(1H-pyrazol-4-yl)-1H-pyrrolo[3,2-c]quinolin-8-yl)propanenitrile]
0.1 to 1	0.1 to 1	COC(=O)CCc1c(N2CC(N(C)C)C2)c2c(OC)nc3c(F)c(-c4cc(O)cc5ccccc45)c(CCC#N)cc3c2n1[C@H]1[C@H]2CN[C@@H]1C2 [Example 49, methyl 3-(1-((1R,4R,5S)-2-azabicyclo[2.1.1]hexan-5-yl)-8-(2-cyanoethyl)-3-(3-(dimethylamino)azetidin-1-yl)-6-fluoro-7-(3-hydroxynaphthalen-1-yl)-4-methoxy-1H-pyrrolo[3,2-c]quinolin-2-yl)propanoate]
≤ 0.1	≤ 0.1	CN1CCC[C@H]1COc1nc2c(F)c(-c3cc(O)cc4ccccc34)c(CCC#N)cc2c2c1cc(-c1ccn(C)n1)n2C1C2CNC1C2 (stereo partly drawn) [Example 39, 3-(1-(2-azabicyclo[2.1.1]hexan-5-yl)-6-fluoro-7-(3-hydroxynaphthalen-1-yl)-2-(1-methyl-1H-pyrazol-3-yl)-4-(((S)-1-methylpyrrolidin-2-yl)methoxy)-1H-pyrrolo[3,2-c]quinolin-8-yl)propanenitrile]
≤ 0.1	0.1 to 1	CN1CCC[C@H]1COc1nc2c(F)c(-c3cc(O)cc4ccccc34)c(CCC#N)cc2c2c1c(-c1cnn(C)c1)cn2C1C2CNC1C2 (stereo partly drawn) [Example 38, 3-(1-(2-azabicyclo[2.1.1]hexan-5-yl)-6-fluoro-7-(3-hydroxynaphthalen-1-yl)-3-(1-methyl-1H-pyrazol-4-yl)-4-(((S)-1-methylpyrrolidin-2-yl)methoxy)-1H-pyrrolo[3,2-c]quinolin-8-yl)propanenitrile]
≤ 0.1	0.1 to 1	CN1CCC[C@H]1COc1nc2c(F)c(-c3cc(O)cc4ccccc34)c(CCC#N)cc2c2c1c(C(=O)NCCO)cn2C1C2CNC1C2 (stereo partly drawn) [Example 44, 1-(2-azabicyclo[2.1.1]hexan-5-yl)-8-(2-cyanoethyl)-6-fluoro-N-(2-hydroxyethyl)-7-(3-hydroxynaphthalen-1-yl)-4-(((S)-1-methylpyrrolidin-2-yl)methoxy)-1H-pyrrolo[3,2-c]quinoline-3-carboxamide]
≤ 0.1	0.1 to 1	CN1CCC[C@H]1COc1nc2c(F)c(-c3cc(O)cc4ccccc34)c(CCC#N)cc2c2c1c(Cl)cn2C1C2CNC1C2 (stereo partly drawn) [Example 43, 3-(1-(2-azabicyclo[2.1.1]hexan-5-yl)-3-chloro-6-fluoro-7-(3-hydroxynaphthalen-1-yl)-4-(((S)-1-methylpyrrolidin-2-yl)methoxy)-1H-pyrrolo[3,2-c]quinolin-8-yl)propanenitrile]
≤ 0.1	≤ 0.1	CN1CCC[C@H]1COc1nc2c(F)c(-c3cccc4ccc(F)cc34)c(CCC#N)cc2c2c1cc(CCC(=O)N1CCC1)n2C1C2CNC1C2 (stereo partly drawn) [Example 50, 3-(2-(3-(azetidin-1-yl)-3-oxopropyl)-1-(2-azabicyclo[2.1.1]hexan-5-yl)-6-fluoro-7-(7-fluoronaphthalen-1-yl)-4-(((S)-1-methylpyrrolidin-2-yl)methoxy)-1H-pyrrolo[3,2-c]quinolin-8-yl)propanenitrile]
